Measured values from patent US20260285888A1, “HETEROCYCLIC COMPOUND AND USE THEREOF” (OTSUKA PHARMACEUTICAL CO., LTD., priority 2023, published 2026).

Assays:
in vitro = assay type: cell-based, human; details: human, differentiated hl-60 cells, 300 μmol/L, about 24 hours, PMA-differentiated HL-60 cells, LDH; no-treatment 0%, cell lysis buffer 100%; read-out: cytotoxicity (%) Evaluation compound results
Description: An HL-60 cell line (human acute promyelocytic leukemia cells) was successively cultured in RPMI 1640 containing 20% fetal bovine serum (FBS) at 37° C. in 95% atmosphere/5% CO2. Before evaluation, the cells were pre-cultured for about 72 hours in the presence of 10 nM phorbol 12-myristate 13-acetate (PMA) to induce macrophage-like differentiation.
Evaluation compounds were dissolved in DMSO to obtain 30 mmol/L solutions (or suspensions). Each DMSO solution was diluted 100-fold with RPMI 1640 containing 2% FBS (final concentration of the compound: 300 μmol/L) to obtain a treatment solution. The culture supernatant of the differentiated HL-60 cells was removed, and each treatment solution was added and cultured for about 24 hours, followed by cytotoxicity evaluation.
The activity of lactate dehydrogenase (LDH) was measured in the treatment solutions exposed to the cells for about 24 hours by using a commercial kit (Cytotoxicity LDH Assay Kit-WST, Dojindo Laboratories) and a plate reader (Tecan Infinite M1000). The obtained measurement values were used to calculate cytotoxicity (%) as comparison values for each evaluation compound-treated group, with the no-treatment group taken as 0% and the cell lysis buffer-treated group taken as 100%. The test was conducted in triplicate in three wells each, and the average values were used as adopted values.

[1] = Study for confirmation of conversion to brexpiprazole in a buffer (stability of the evaluation compounds); assay type: physicochemical; details: for Concentration of brexpiprazole formed / Concentration of evaluation compound decreased: in buffer, average of duplicate; for Concentration of brexpiprazole formed: 60-minute reaction sample; for Concentration of evaluation compound decreased: decrease in 60-minute vs 0-minute reaction sample; for stability in the buffer / conversion to brexpiprazole (in words): Tris-hydrochloric acid buffer pH 7.5, 37° C., 60 minutes, 1 μmol/L
Description: The conversion from the evaluation compounds to brexpiprazole in a buffer (i.e., the stability of the evaluation compounds) was evaluated.
The Example 1 compound was dissolved in acetonitrile/water (1:1, v/v) to 10 mmol/L and further diluted with acetonitrile/water (1:1, v/v) to 100 μmol/L for use.
The other Example compounds and the Reference Example 5 compound to Reference Example 7 compound were each dissolved in DMSO to 10 mmol/L and further diluted with acetonitrile to 100 μmol/L for use, except for the following compounds.
The compounds of Examples 52, 95, 96, 117, and 130 (EX 52, EX 95, EX 96, EX 117, and EX 130) were dissolved in acetonitrile/water (8:2, v/v) to 10 mmol/L and further diluted with acetonitrile to 100 μmol/L for use.
The compound of Example 97 (EX 97) was dissolved in acetonitrile/water (8:2, v/v) to 10 mmol/L and further diluted with acetonitrile/water (8:2, v/v) to 100 μmol/L for use.
The compounds of Examples 15 and 116 (EX 15 and EX 116) were dissolved in DMSO to 1 mmol/L and further diluted with acetonitrile to 100 μmol/L for use.
The reaction was conducted by preparing each reaction solution such that the final concentration of each component was as follows. The test was conducted in duplicate.
For the compounds of Examples 1 to 8, 10 to 19, 26 to 27, 37, 50, 87 to 89, 91, 116, 121, 123, 150, and 151 (EX 1 to EX 8, EX 10 to EX 19, EX 26 to EX 27, EX 37, EX 50, EX 87 to EX 89, EX 91, EX 116, EX 121, EX 123, EX 150, and EX 151), and the compounds of Reference Examples 5 to 7 (REX 5 to REX 7), the reaction solution without the evaluation compound (198 μl) was pre-incubated at 37° C. for 3 minutes, and then each of the evaluation compound solutions (2 μl) was added and stirred; thereafter, the reaction was started at 37° C. At 0 minutes or 60 minutes after the start of the reaction, the reaction was stopped by adding and stirring a reaction stop solution (1000 μl) composed of acetonitrile/isopropanol (4:1, v/v) containing internal standard substances. However, the 0-minute reaction sample (198 μl) was prepared by adding the evaluation compound (2 μl) after adding the reaction stop solution (1000 μl). The samples after stopping the reaction were used as the measurement samples. Calibration curve samples with the same composition were prepared (final concentrations of the evaluation compounds and brexpiprazole: 0.01, 0.1, and 1 μmol/L, with the proviso that for the evaluation compounds only, the 0-minute reaction samples were also used as calibration curve samples for 1 μmol/L).
For the compounds of Examples 24 to 25, 28 to 29, 32 to 36, 40 to 49, 51 to 60, 62 to 64, 66 to 77, 80 to 86, 90, 92 to 111, 113, 115, 117 to 120, 122, 124 to 130, 132 to 147, and 152 to 160 (EX 24 to EX 25, EX 28 to EX 29, EX 32 to EX 36, EX 40 to EX 49, EX 51 to EX 60, EX 62 to EX 64, EX 66 to EX 77, EX 80 to EX 86, EX 90, EX 92 to EX 111, EX 113, EX 115, EX 117 to EX 120, EX 122, EX 124 to EX 130, EX 132 to EX 147, and EX 152 to EX 160), the reaction solution without the evaluation compound (148.5 μl) was pre-incubated at 37° C. for 3 minutes, and then each of the evaluation compound solutions (1.5 μl) was added and stirred; thereafter, the reaction was started at 37° C. At 0 minutes or 60 minutes after the start of the reaction, the reaction was stopped by adding and stirring a reaction stop solution (600 μl) composed of acetonitrile/isopropanol (4:1, v/v) containing internal standard substances. However, the 0-minute reaction sample (148.5 μl) was prepared by adding the evaluation compound (1.5 μl) after adding the reaction stop solution (600 μl). The samples after stopping the reaction were used as the measurement samples. Calibration curve samples with the same composition were prepared (final concentrations of the evaluation compounds and brexpiprazole: 0.01, 0.1, and 1 μmol/L, with the proviso that for the evaluation compounds only, the 0-minute reaction samples were also used as calibration curve samples for 1 μmol/L). […]

SMILES	cytotoxicity at 24 h, 300 µM (in vitro) [%]	Concentration of brexpiprazole formed [1] [nM]	Concentration of evaluation compound decreased [1] [nM]	stability in the buffer / conversion to brexpiprazole (in words) [1]
COCC(=O)OCOP(=O)([O-])OC[N+]1(CCCCOc2ccc3ccc(=O)[nH]c3c2)CCN(c2cccc3sccc23)CC1 [EX 30, (4-(benzo[b]thiophen-4-yl)-1-(4-((2-oxo-1,2-dihydroquinolin-7-yl)oxy)butyl)piperazin-1-ium-1-yl)methyl ((2-methoxyacetoxy)methyl) phosphate]	14	–	–	–
O=c1ccc2ccc(OCCCC[N+]3(COP(=O)([O-])OC[C@H]4CC[C@H](CO)CC4)CCN(c4cccc5sccc45)CC3)cc2[nH]1 [EX 86, (4-(benzo[b]thiophen-4-yl)-1-(4-((2-oxo-1,2-dihydroquinolin-7-yl)oxy)butyl)piperazin-1-ium-1-yl)methyl (((1r,4r)-4-(hydroxymethyl)cyclohexyl)methyl) phosphate]	–	0	50	–
COP(=O)([O-])OC[N+]1(CCCCOc2ccc3ccc(=O)[nH]c3c2)CCN(c2cccc3sccc23)CC1 [EX 87, (4-(benzo[b]thiophen-4-yl)-1-(4-((2-oxo-1,2-dihydroquinolin-7-yl)oxy)butyl)piperazin-1-ium-1-yl)methyl methyl phosphate]	–	0	0	–
CCCOP(=O)([O-])OC[N+]1(CCCCOc2ccc3ccc(=O)[nH]c3c2)CCN(c2cccc3sccc23)CC1 [EX 88, (4-(benzo[b]thiophen-4-yl)-1-(4-((2-oxo-1,2-dihydroquinolin-7-yl)oxy)butyl)piperazin-1-ium-1-yl)methyl propyl phosphate]	–	0	-10	–
CCCCOP(=O)([O-])OC[N+]1(CCCCOc2ccc3ccc(=O)[nH]c3c2)CCN(c2cccc3sccc23)CC1 [EX 89, (4-(benzo[b]thiophen-4-yl)-1-(4-((2-oxo-1,2-dihydroquinolin-7-yl)oxy)butyl)piperazin-1-ium-1-yl)methyl butyl phosphate]	–	0	-70	–
CCOCCOC(=O)[C@@H](C)OP(=O)([O-])OC[N+]1(CCCCOc2ccc3ccc(=O)[nH]c3c2)CCN(c2cccc3sccc23)CC1 [EX 109, (R)-(4-(benzo[b]thiophen-4-yl)-1-(4-((2-oxo-1.2-dihydroquinolin-7-yl)oxy)butyl)piperazin-1-ium-1-yl)methyl (1-(2-ethoxyethoxy)-1-oxopropan-2-yl) phosphate]	–	0	-20	–
O=c1ccc2ccc(OCCCC[N+]3(COP(=O)([O-])OCC(F)F)CCN(c4cccc5sccc45)CC3)cc2[nH]1 [EX 115, (4-(benzo[b]thiophen-4-yl)-1-(4-(2-oxo-1,2-dihydroquinolin-7-yl)oxy)butyl)piperazin-1-ium-1-yl)methyl (2,2-difluoroethyl) phosphate]	–	0	50	–
CCCC(=O)OCOP(=O)([O-])OC[N+]1(CCCCOc2ccc3ccc(=O)[nH]c3c2)CCN(c2cccc3sccc23)CC1 [EX 121]	–	0	90	–
CCC(C)(C)C(=O)OCOP(=O)([O-])OC[N+]1(CCCCOc2ccc3ccc(=O)[nH]c3c2)CCN(c2cccc3sccc23)CC1 [EX 122, (4-(benzo[b]thiophen-4-yl)-1-(4-((2-oxo-1,2-dihydroquinolin-7-yl)oxy)butyl)piperazin-1-ium-1-yl)methyl (((2,2-dimethylbutanoyl)oxy)methyl) phosphate]	–	0	50	–
O=C(OCOP(=O)([O-])OC[N+]1(CCCCOc2ccc3ccc(=O)[nH]c3c2)CCN(c2cccc3sccc23)CC1)C12CC3CC(CC(C3)C1)C2 [EX 124, (((1s,3s)-adamantane-1-carbonyl)oxy)methyl ((4-(benzo[b]thiophen-4-yl)-1-(4-((2-oxo-1,2-dihydroquinolin-7-yl)oxy)butyl)piperazin-1-ium-1-yl)methyl) phosphate]	–	0	100	–
CCC(=O)OC[N+]1(CCCCOc2ccc3ccc(=O)[nH]c3c2)CCN(c2cccc3sccc23)CC1.[I-] [REX 5, 4-(Benzo[b]thiophen-4-yl)-1-(4-((2-oxo-1,2-dihydroquinolin-7-yl)oxy)butyl)-1-((propionyloxy)methyl)piperazin-1-ium iodide, reference compound]	–	260	200	–
CCCCCC(=O)OC[N+]1(CCCCOc2ccc3ccc(=O)[nH]c3c2)CCN(c2cccc3sccc23)CC1.[I-] [REX 6, 4-(Benzo[b]thiophen-4-yl)-1-((hexanoyloxy)methyl)-1-(4-((2-oxo-1,2-dihydroquinolin-7-yl)oxy)butyl)piperazin-1-ium iodide, reference compound]	–	210	220	–
CCCCCCOC(=O)OC[N+]1(CCCCOc2ccc3ccc(=O)[nH]c3c2)CCN(c2cccc3sccc23)CC1.[I-] [REX 7, 4-(Benzo[b]thiophen-4-yl)-1-((((hexyloxy)carbonyl)oxy)methyl)-1-(4-((2-oxo-1,2-dihydroquinolin-7-yl)oxy)butyl)piperazin-1-ium iodide, reference compound]	–	240	270	–
CCC(=O)OC[N+]1(CCCCOc2ccc3ccc(=O)[nH]c3c2)CCN(c2cccc3sccc23)CC1 [Reference Example 5, reference compound]	–	–	–	clearly degraded to brexpiprazole
CCCCCC(=O)OC[N+]1(CCCCOc2ccc3ccc(=O)[nH]c3c2)CCN(c2cccc3sccc23)CC1 [Reference Example 6, reference compound]	–	–	–	clearly degraded to brexpiprazole
CCCCCCOC(=O)OC[N+]1(CCCCOc2ccc3ccc(=O)[nH]c3c2)CCN(c2cccc3sccc23)CC1 [Reference Example 7, reference compound]	–	–	–	clearly degraded to brexpiprazole
